From patent publication US10604493B2, “Compositions, methods of use, and methods of treatment” (priority 2012, dated 2020)

How the values were obtained:
CTX-M-9 = CTX-M-9 (Escherichia coli, UniProt Q9L5C8); experiment: biochemical; conditions: for LipE (defined as log Ki-c log P): from Ki against CTX-M-9 and c log P
Source text: To investigate the effectiveness of the new analogs, we employed CTX-M-9 and a UV-absorbance based biochemical assay to obtain binding affinities. […] The parameter LipE (defined as log Ki-c log P)^24 provides a measure of binding affinity improvement achieved while retaining favorable physiochemical properties.
The compounds were synthesized as previously described or purchased from the company Chembridge, and assayed without further purification. The highest concentrations at which the compounds were tested were up to 1-3 mM (depending on their solubility) in IC50 experiment. The reaction was initiated by adding protein to the reaction buffer last.

[1] = test system: O=C(Cc1cccs1)N[C@@H]1C(=O)N2C(C(=O)O)=C(/C=C/c3ccc([N+](=O)[O-])cc3[N+](=O)[O-])CS[C@H]12; experiment: purified protein, by the assay type; conditions: other: substrate, 100 mM Tris-HCl pH 7.0, 0.01% Triton X-100

Molecule | LipE (defined as log Ki-c log P) (CTX-M-9) | Ki (CTX-M-9) [µM] | further results
CC(=O)c1cccc(C(=O)Nc2cccc(-c3nnn[nH]3)c2)c1 [Compound 7, 3-Acetyl-N-[3-(1H-tetrazol-5-yl)-phenyl]-benzamide] | 2.51 | – | –
O=C(Nc1cccc(-c2nnn[nH]2)c1)c1cc(C(F)(F)F)cc2nc[nH]c12 [Compound 19, 6-Trifluoromethyl-3H-benzoimidazole-4-carboxylic acid [3-(1H-tetrazol-5-yl)-phenyl]-amide] | 3.86 | 0.089 | ligand efficiency (L.E.) (CTX-M-9; from Ki against CTX-M-9): 0.36
CTX-M-9 (Escherichia coli) | – | – | Km [1]: 24 µM
O=C(Nc1cccc(-c2nnn[nH]2)c1)c1cccc(F)c1 [Compound 1] | 1.37 | – | –
O=C(Nc1cccc(-c2nnn[nH]2)c1)c1cc(F)cc2nc[nH]c12 [Compound 23, 6-Fluoro-3H-benzoimidazole-4-carboxylic acid [3-(1H-tetrazol-5-yl)-phenyl]-amide] | – | – | potency (Ki) relative to comparator compound, in words (CTX-M-9; CTX-M-9): only equipotent to des-fluoro comparator 16
N#Cc1cccc(C(=O)Nc2cccc(-c3nnn[nH]3)c2)c1 [Compound 14, 3-Cyano-N-[3-(1H-tetrazol-5-yl)-phenyl]-benzamide] | – | 7.2 | –
